The values that follow come from patent publication US20240376091A1, “THIADIAZOLEAMIDE DERIVATIVES AND THEIR APPLICATIONS” (ZHEJIANG UNIVERSITY, priority 2021, published 2024).

The first data set concerns the target T1, AR (Homo sapiens, UniProt P10275, T878A).
T1 construct: into the androgen-dependent PCa cells (LNCaP); endogenous in cells; host or cells: LNCaP-ARR2PB-eGFP
T1 sequence (P10275 1-920 T878A): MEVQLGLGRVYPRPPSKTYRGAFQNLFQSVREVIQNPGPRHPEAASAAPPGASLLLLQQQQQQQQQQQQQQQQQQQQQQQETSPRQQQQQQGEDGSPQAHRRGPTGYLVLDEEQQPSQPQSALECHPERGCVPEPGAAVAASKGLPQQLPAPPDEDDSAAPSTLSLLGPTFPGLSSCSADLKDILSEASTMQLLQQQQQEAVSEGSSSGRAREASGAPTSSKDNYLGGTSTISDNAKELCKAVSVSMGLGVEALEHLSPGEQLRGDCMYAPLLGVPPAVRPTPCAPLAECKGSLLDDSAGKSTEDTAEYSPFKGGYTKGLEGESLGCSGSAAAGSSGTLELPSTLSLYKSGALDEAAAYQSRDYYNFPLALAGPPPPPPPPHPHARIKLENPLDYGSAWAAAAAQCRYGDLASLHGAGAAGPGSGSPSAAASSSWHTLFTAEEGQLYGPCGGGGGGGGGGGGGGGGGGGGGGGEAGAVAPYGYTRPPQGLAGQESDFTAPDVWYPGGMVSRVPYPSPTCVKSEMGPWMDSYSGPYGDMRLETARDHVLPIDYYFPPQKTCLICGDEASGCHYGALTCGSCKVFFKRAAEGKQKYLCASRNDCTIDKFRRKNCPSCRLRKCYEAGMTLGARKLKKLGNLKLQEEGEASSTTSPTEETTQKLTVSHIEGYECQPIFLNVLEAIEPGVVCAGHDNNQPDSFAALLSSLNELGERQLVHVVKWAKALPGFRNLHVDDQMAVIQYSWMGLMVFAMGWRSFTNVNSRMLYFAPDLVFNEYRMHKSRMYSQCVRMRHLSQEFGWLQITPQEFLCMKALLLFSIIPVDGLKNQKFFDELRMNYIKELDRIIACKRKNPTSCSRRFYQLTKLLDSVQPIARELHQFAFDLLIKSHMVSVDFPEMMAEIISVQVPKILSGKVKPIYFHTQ
Kind of data set: AR transcriptional activity, LNCaP-ARR2PB-eGFP reporter cells. It counts as cell-based. The note with it: read-out: IC50 AR transcriptional activities. The text has this:
Detection principles: We conducted a stable transfection of promoter ARR2PB known for its strong AR responsiveness, into the androgen-dependent PCa cells (LNCaP). The expression of enhanced green fluorescent protein (eGFP) is depending on the degree of activation of AR. Therefore, LNCaP-ARR2PB-eGFP cell line could quantitatively determine the AR antagonistic activities of the compounds by evaluating the expression of eGFP.
By IC50 is commonly meant the point on the concentration scale where inhibition reaches its midpoint. For the compound `O=C(Nc1nc(CN2CCCC2)ns1)c1cc(-c2cccc(C(F)(F)F)c2)co1` [Compound G-24, N-(3-(pyrrolidin-1-ylmethyl)-1,2,4-thiadiazol-5-yl)-4-(3-(trifluoromethyl)phenyl)furan-2-carboxamide], the half-maximal inhibitory concentration (IC50) was 24.2 µM.

Turning to `CC(Cc1nsc(NC(=O)c2coc(-c3cccc(C#N)c3)c2)n1)N1CCCC1` (centres unmarked) [Compound B-12, 5-(3-Cyanophenyl)-N-(3-(2-(pyrrolidin-1-yl)propyl)-1,2,4-thiadiazol-5-yl)furan-3-carboxamide], the IC50 came to 23.3 µM. On the same count and under the same terms, the value for `CC(=O)Cc1nsc(NC(=O)c2cc(-c3cccc(C(F)(F)F)c3)c(C)o2)n1` [Compound F-1, 5-Methyl-N-(3-(2-oxopropyl)-1,2,4-thiadiazol-5-yl)-4-(3-(trifluoromethyl)phenyl)furan-2-carboxamide] was 28.1 µM. As to `CC(Cc1nsc(NC(=O)c2cc(-c3cccc(C(F)(F)F)c3)oc2C(F)(F)F)n1)N1CCCC1` (centres unmarked) [Compound E-6, N-(3-(2-(pyrrolidin-1-yl)propyl)-1,2,4-thiadiazol-5-yl)-2-(trifluoromethyl)-5-(3-(trifluoromethyl)phenyl) furan-3-carboxamide], the IC50 came to 3.38 µM. In the case of `CC(=O)Cc1nsc(NC(=O)c2cc(-c3cccc(C(F)(F)F)c3)sc2C)n1` [Compound C-1, 2-Methyl-N-(3-(2-oxopropyl)-1,2,4-thiadiazol-5-yl)-5-(3-(trifluoromethyl)phenyl)thiophene-3-carboxamide], the half-maximal inhibitory concentration (IC50) came to 9.33 µM. With `CN(C)Cc1nsc(NC(=O)c2csc(-c3cccc(C#N)c3)c2)n1` [Compound D-47, 5-(3-Cyanophenyl)-N-(3-((dimethylamino)methyl)-1,2,4-thiadiazol-5-yl)thiophene-3-carboxamide], the IC50 stood at 25.3 µM. For the compound `CC(Cc1nsc(NC(=O)c2cc(-c3cccc(OC(F)F)c3)co2)n1)N1CCN(C)CC1` (centres unmarked) [Compound G-10, 4-(3-(Difluoromethoxy)phenyl)-N-(3-(2-(4-methylpiperazin-1-yl)propyl)-1,2,4-thiadiazol-5-yl)furan-2-carboxamide], the concentration for half-maximal inhibition (IC50) is 15.3 µM. Regarding `CC(=O)Cc1nsc(NC(=O)c2cc(-c3cccc(NC(C)=O)c3)oc2C)n1` [Compound A-25, 5-(3-Acetamidophenyl)-2-methyl-N-(3-(2-oxopropyl)-1,2,4-thiadiazol-5-yl)furan-3-carboxamide], the IC50 was 13.6 µM. Take `COc1cccc(-c2coc(C(=O)Nc3nc(CC(C)N4CCOCC4)ns3)c2)c1` (centres unmarked) [Compound G-8, 4-(3-Methoxyphenyl)-N-(3-(2-morpholinopropyl)-1,2,4-thiadiazol-5-yl)furan-2-carboxamide]: the IC50 stood at 19.2 µM. `CC(=O)Cc1nsc(NC(=O)c2cc(-c3cccc(C#N)c3)oc2C(F)(F)F)n1` [Compound E-2, 5-(3-Cyanophenyl)-N-(3-(2-oxopropyl)-1,2,4-thiadiazol-5-yl)-2-(trifluoromethyl)furan-3-carboxamide]: the IC50 was 2.23 µM. On the same count and under the same terms, under `O=C(Nc1nc(CCl)ns1)c1csc(-c2cccc(C(F)(F)F)c2)c1` [Compound D-40, N-(3-(chloromethyl)-1,2,4-thiadiazol-5-yl)-5-(3-(trifluoromethyl)phenyl)thiophene-3-carboxamide] stands 21.5 µM; under `COc1cccc(-c2coc(C(=O)Nc3nc(CC(C)=O)ns3)c2)c1` [Compound G-3, 4-(3-Methoxyphenyl)-N-(3-(2-oxopropyl)-1,2,4-thiadiazol-5-yl)furan-2-carboxamide], 33.6 µM. `O=C(Nc1nc(CN2CCCC2)ns1)c1csc(-c2cccc(OC(F)(F)F)c2)c1` [Compound D-53, N-(3-(pyrrolidin-1-ylmethyl)-1,2,4-thiadiazol-5-yl)-5-(3-(trifluoromethoxy)phenyl)thiophene-3-carboxamide]: the IC50 worked out at 27.3 µM. On the same count and under the same terms, under `COC(C)Cc1nsc(NC(=O)c2cc(-c3cccc(C(F)(F)F)c3)oc2C)n1` (centres unmarked) [Compound A-61, N-(3-(2-methoxypropyl)-1,2,4-thiadiazol-5-yl)-2-methyl-5-(3-(trifluoromethyl)phenyl)furan-3-carboxamide] stands 3.82 µM; under `Cc1oc(-c2cccc(C(F)(F)F)c2)cc1C(=O)Nc1nc(CC(C)(F)F)ns1` [Compound A-85, N-(3-(2,2-difluoropropyl)-1,2,4-thiadiazol-5-yl)-2-methyl-5-(3-(trifluoromethyl)phenyl) furan-3-carboxamide], 0.77 µM; under `COc1cccc(-c2cc(C(=O)Nc3nc(CC(C)=O)ns3)c(C(F)(F)F)o2)c1` [Compound E-3, 5-(3-Methoxyphenyl)-N-(3-(2-oxopropyl)-1,2,4-thiadiazol-5-yl)-2-(trifluoromethyl)furan-3-carboxamide], 0.57 µM.

A further data set deals with LNCaP xenograft. Kind of data set: LNCaP xenograft model in vivo. The settings on record: intratumor injection 2.5 mg/kg/week.
Protocol: Methods: LNCaP cells were injected to the Male CB17 SCID mice (6-8 weeks old). Once tumor size reached target value, the mice were randomized into three groups with 6-8 mice per group. […] The mice weight and tumor volume were periodically recorded. Finally, the tumors were harvested.
Consider `CNC(=O)c1ccc(N2C(=S)N(c3ccc(C#N)c(C(F)(F)F)c3)C(=O)C2(C)C)cc1F` [Enzalutamide, reference compound], for which the body weight result was “no significant loss of body weight”.
